Measurements taken from US11040108B2, “Amino acid- and peptide-steroid conjugates and use thereof” (BRANDEIS UNIVERSITY, priority 2016, dated 2021).
Read-outs that look alike come from different tables or passages of the source.

Experiments:
[1] = test system: Kuramochi ovarian cancer cells; test: MTT assay, cell viability of Kuramochi; type: cell-based; conditions: read-out: IC50 against Kuramochi
Experimental: (§1) An MTT assay was used to test the cytotoxicity. All different cell lines were seeded in 96-well plates at 1×10^5 cells/well for 24 hours followed by removal of the culture medium and subsequent addition of culture medium containing different concentrations of the precursors. At designated time (24/48/72 hours), 10 μL MTT solution (5 mg/mL) was added to each well and incubated at 37° C. for another 4 hours, and then 100 μL of SDS-HCl solution was added to stop the reduction reaction and dissolve the purple formazan. The absorbance of each well at 595 nm was measured by a multimode microplate reader. The cytotoxicity assay was performed three times and the average value of the three measurements was taken.
Additional cell viability assays were carried out using conjugates 1a and 1b, optionally with 3, against HepG2 human liver carcinoma cells, Saos-2 osteosarcoma cells, T98G glioblastoma cells, HS-5 (normal bone marrow stromal cells), A2780 ovarian cancer cells (parental line to A2780cis), and Kuramochi ovarian cancer cells. Conjugate 1a was particularly effective against ovarian and cervical cancer cells.

[2] = test system: A2780 cell line; test: Cell viability of unstimulated or selected A2780 cell line (acquired resistance); type: cell-based; conditions: after five weeks treatment with gradually increased concentrations; 24, 48, 72 h
Experimental: as §1
The activity of 1a against non-drug resistant cancer cells was assessed using the A2780 cell line.

[3] = test system: lipid rafts in A2780cis cells; test: Laurdan staining of lipid rafts, A2780cis; type: cell-based, human; conditions: 1a 12.5 μM, 12 hours, 10 μM laurdan
Excerpt: Considering that cholesterol is the basic component of lipid rafts, dynamic assemblies in cell membrane (Simons et al., “Functional Rafts in Cell Membranes,” Nature 387:569 (1997), which is hereby incorporated by reference in its entirety), laurdan, a commonly used probe for the polarity membrane (Parasassi et al., “Quantitation of Lipid Phases in Phospholipid Vesicles by the Generalized Polarization of Laurdan Fluorescence,” Biophys. J. 60:179 (1991), which is hereby incorporated by reference in its entirety), was used to examine the changes of lipid rafts upon the EISA of […]. Without treatment of 1a, the fluorescence of laurdan dispersed relatively evenly in the whole cell membrane (FIG. 8C).

[4] = test system: lipid rafts in HeLa cell; test: Laurdan staining of lipid rafts, HeLa; type: cell-based, human; conditions: 1a 25 μM, 12 hours
[5] = test system: Src, Akt, p-SAPK/JNK in A2780cis cell lines; test: Expression of Src, Akt and p-SAPK/JNK (CLSM, Western blot); type: cell-based, human
Experimental: Further exploration of the mode of action of 1a against A2780cis and HeLa cells was carried out via Western blot for the following ER stress markers: CHOP, Bip, PDI, IRE1α, Calnexin, Erol-Lα, PERK, and β-actin; or p-SAPK/JNK. Western blot was carried out via gel electrophoresis at […] for 1.5 hrs, and then transferring the protein on the gel to PVDF membranes for overnight at […] (4° C.). After that, the membrane was incubated with primary antibodies (obtained from Cell Signaling Technology) overnight at 4° C. The membrane was then incubated with secondary antibodies for 1 h at room temperature. This was followed by the reaction with ECL solutions for 10 minutes, and analysis of the results by autoradiography. Generation of ROS was detected in CLSM images via DHE emissions in exposed cells. CLSM imaging was carried out at the excitation of 543 nm and DHE emission was detected at the wavelength at 575 nm to 625 nm; or detection of anti-phospho-SRC and anti-phospho-Akt.
In addition, 1a causes down regulation of cell survival proteins, Akt (Alexander, “Inhibiting the Akt Pathway in Cancer Treatment,” Pharmacy & Therapeutics 36(4): 225-227 (2011), which is hereby incorporated by reference in its entirety) and Src (Irby et al., “Role of Src Expression and Activation in Human Cancer,” Oncogene 19(49):5636-5642 (2000), which is hereby incorporated by reference in its entirety). […]

[6] = TEM of assemblies in aqueous solution; type: physicochemical; conditions: 1.0 wt %
Experimental: Sample solution (5 sufficient to cover the grid surface) was placed on the grid. Approximately 10 sec later, sample was rinsed by placing a large drop of the ddH2O on parafilm and allowing the grid to touch the water drop, with the sample-loaded surface facing the parafilm. The grid was tilted and water was gently absorbed from the edge of the grid using a filter paper sliver. This procedure was repeated 3 times. Immediately after rinsing, the staining was conducted by placing a large drop of the uranyl acetate (UA) stain solution on parafilm and allowing the grid to touch the stain solution drop, with the sample-loaded surface facing the parafilm. The grid was tilted and the stain solution was gently absorbed from the edge of the grid using a filter paper sliver. Next, the grid was allowed to dry in air and the grid was examined as soon as possible.
To further understand the inhibitory activity of 1a, transmission electron microscopy (TEM) was used to confirm the EISA of 1b. […] In contrast, uniform nanofibers (diameter of 10±2 nm) formed after the addition of ALP (1 U/mL) into the solution of 1a (FIG. 3B). The resulted nanofibers entangled with each other to result in a viscous solution. […] But the direct dissolution of 2b (1.0 wt %) provided an aqueous solution containing nanoribbon with the diameter of 17±2 nm and in several hundred nanometer length (FIG. 4B). These observations, collectively, confirmed that enzymatic reaction modulated the morphology of the assemblies of the cholesterol conjugates, which partially contributed to the different inhibitory activities of 1a, 1b, 2a, and 2b. That is, being exposed to the cancer cell, 1a (or 2a) turns into 1b (or 2b), a process catalyzed by the extra- or intracellular enzymes of the cancer cells; the resulting 1b (or 2b) self-assembled to form nanoscale assemblies that result in death of the cancer cell.

CC(C)CCC[C@@H](C)C1CC[C@H]2[C@@H]3CC=C4CC(OC(=O)NC(Cc5ccc(OP(=O)(O)O)cc5)C(=O)O)CC[C@]4(C)[C@H]3CC[C@]12C (stereo partly drawn) [1a, Cholesterol-(phospho)D-Tyr]
IC50 ([1]; 48 hours): 19 µM | IC50 ([1]; 72 hours): 13 µM | inhibition of A2780 and acquired drug resistance [2]: able to inhibit ovarian cancer cells without acquired drug resistance | laurdan fluorescence in cell membrane (lipid rafts) [3]: increased inhomogeneity of the fluorescence | number of green fluorescent puncta in cell membrane (laurdan, lipid rafts) [4]: increased considerably | expression of Src and Akt ([5]; 1a 12.5 μM, 24 hours): downregulates | p-SAPK/JNK expression levels ([5]; 24 hour treatment, Western blot): enhanced | morphology in aqueous solution without ALP ([6]; pH 7.4): disorder aggregates | diameter of nanofibers formed after addition of ALP ([6]; pH 7.4, ALP 1 U/mL, 24 hours): 10±2 nm
